According to ChEMBL document CHEMBL1201862, “PubChem BioAssay data set” (2004):
The source made the active and inactive calls.

What was measured:
[1] = biological target: T1, Polyadenylate-binding protein 1 (Homo sapiens, UniProt P11940); test: PABP1 MLLE–PAM2 interaction inhibitors, dose response, miRNA deadenylation inhibitor project, biochemical, fluorescence polarization, Cy5-PAM2 peptide, secondary (AID 602260); format: functional; settings: read-out: IC50_Mean
[2] = biological target: T1, Polyadenylate-binding protein 1; test: PABP1 MLLE–PAM2 binding inhibitor potency, dose response, biochemical, fluorescence polarization, FITC-PAM2 peptide (AID 602259); format: functional; settings: read-out: IC50_Mean
[3] = growth suppression of PTEN-null colon cells, dose response, cell-based, HCT116 PTEN knockout (AID 1047); format: functional;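 note: HCT116 colon tumor cells with PTEN knocked out; cells exposed to compound for 60 hours before readout; potency for loss of cell viability measured by luminescence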
[4] = growth suppression of beta-catenin-knockout colon cells, dose response, cell-based, HCT116, human colon tumor (AID 1045); format: functional;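 note: HCT116 colon tumor cells with beta catenin knocked out; cells exposed to compound for 60 hours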
[5] = biological target: T2, Streptokinase A (Streptococcus pyogenes serotype M1, UniProt P10520); test: S. pyogenes streptokinase expression inhibitors, potency, dose response, plasminogen activation absorbance, OD405 (AID 1914); format: functional, Streptococcus pyogenes M1 GAS;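 note: secreted streptokinase activity via plasminogen activation per viability signal from cell pellet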
T2 sequence (P10520 whole entry): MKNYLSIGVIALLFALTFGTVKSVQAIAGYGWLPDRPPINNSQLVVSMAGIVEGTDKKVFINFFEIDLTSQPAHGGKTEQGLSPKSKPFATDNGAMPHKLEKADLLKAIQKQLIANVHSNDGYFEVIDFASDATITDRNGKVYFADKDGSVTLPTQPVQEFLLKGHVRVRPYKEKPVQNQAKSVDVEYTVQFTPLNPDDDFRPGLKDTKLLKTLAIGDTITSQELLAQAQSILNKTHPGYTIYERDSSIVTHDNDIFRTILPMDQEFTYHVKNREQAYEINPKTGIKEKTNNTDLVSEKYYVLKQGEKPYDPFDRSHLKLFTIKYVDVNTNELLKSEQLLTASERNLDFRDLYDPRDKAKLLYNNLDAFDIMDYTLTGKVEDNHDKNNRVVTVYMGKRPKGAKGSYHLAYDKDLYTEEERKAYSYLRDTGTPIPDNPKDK

[6] = system: Streptococcus; test: Group A Streptococcus viability loss, dose response, counter-screen for streptokinase expression inhibitor project, luminescence, BacTiterGlo (AID 1915); format: functional, organism-based;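 note: potency for reduction of bacterial viability or growth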
[7] = system: Streptococcus sp. 'group A'; test: growth inhibition of control SK(-) GAS strain, dose response, counter-screen for streptokinase expression inhibitor project, luminescence, kanamycin, BacTiterGlo, confirmation (AID 1900); format: functional, organism-based
[8] = biological target: Cytochrome P450 3A4 (Homo sapiens, UniProt P08684);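 note: CYP3A4 tested as one member of a cytochrome P450 panel screen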
[9] = biological target: T3, Cytochrome P450 1A2 (Homo sapiens, UniProt P05177);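 note: PubChem cytochrome P450 panel assay, CYP1A2 panel member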
T3 sequence (P05177 whole entry): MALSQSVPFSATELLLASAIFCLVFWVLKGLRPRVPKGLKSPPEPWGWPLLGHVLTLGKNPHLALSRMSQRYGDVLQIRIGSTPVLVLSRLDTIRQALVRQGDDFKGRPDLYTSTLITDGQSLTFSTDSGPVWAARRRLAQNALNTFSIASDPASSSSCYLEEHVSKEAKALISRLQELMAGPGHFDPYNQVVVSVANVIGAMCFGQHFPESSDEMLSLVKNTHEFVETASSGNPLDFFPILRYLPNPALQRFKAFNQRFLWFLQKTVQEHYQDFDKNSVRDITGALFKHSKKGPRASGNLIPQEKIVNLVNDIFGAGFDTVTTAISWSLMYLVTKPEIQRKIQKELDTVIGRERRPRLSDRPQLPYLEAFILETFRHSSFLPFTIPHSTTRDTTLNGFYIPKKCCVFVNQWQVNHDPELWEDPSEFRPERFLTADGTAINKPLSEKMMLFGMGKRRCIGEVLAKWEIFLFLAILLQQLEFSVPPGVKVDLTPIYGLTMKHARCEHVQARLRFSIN

[10] = biological target: Cytochrome P450 2C9 (Homo sapiens, UniProt P11712)
[11] = Luminescence Cell-Based Dose Retest to Confirm Inhibitors of Cancer Stem Cells. [Related pubchem assays (depositor defined):AID2717, AID2721]; format: functional; settings: Homo sapiens

T1 sequence (P11940 whole entry): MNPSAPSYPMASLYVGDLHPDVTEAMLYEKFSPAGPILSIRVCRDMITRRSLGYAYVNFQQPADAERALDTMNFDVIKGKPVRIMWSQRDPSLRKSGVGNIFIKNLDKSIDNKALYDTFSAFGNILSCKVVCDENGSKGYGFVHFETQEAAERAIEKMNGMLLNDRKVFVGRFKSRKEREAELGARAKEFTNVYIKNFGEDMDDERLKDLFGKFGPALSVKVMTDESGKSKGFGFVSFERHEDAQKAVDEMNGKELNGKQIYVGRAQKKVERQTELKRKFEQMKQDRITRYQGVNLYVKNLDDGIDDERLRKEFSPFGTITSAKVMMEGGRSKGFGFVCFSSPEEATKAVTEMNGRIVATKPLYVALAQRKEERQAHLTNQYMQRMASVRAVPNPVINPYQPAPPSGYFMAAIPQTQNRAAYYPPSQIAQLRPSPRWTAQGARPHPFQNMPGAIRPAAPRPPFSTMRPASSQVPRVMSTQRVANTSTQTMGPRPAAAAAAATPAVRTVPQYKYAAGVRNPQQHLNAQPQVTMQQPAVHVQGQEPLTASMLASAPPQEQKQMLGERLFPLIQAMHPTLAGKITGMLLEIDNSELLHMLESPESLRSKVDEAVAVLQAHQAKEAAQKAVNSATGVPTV
Cytochrome P450 3A4, sequence (P08684 whole entry): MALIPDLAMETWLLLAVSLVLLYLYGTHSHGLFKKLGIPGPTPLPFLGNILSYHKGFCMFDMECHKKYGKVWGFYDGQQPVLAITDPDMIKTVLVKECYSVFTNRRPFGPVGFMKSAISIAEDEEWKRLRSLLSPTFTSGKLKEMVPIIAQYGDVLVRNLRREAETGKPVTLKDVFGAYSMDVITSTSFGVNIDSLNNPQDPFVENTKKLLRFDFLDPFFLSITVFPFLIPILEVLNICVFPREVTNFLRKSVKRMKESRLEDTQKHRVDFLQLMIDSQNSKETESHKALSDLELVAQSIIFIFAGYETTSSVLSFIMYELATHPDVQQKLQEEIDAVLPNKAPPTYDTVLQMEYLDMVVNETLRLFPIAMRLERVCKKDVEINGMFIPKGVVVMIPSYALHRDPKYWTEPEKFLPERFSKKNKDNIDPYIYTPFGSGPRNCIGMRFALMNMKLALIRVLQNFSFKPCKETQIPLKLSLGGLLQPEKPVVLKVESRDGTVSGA
Cytochrome P450 2C9, sequence (P11712 whole entry): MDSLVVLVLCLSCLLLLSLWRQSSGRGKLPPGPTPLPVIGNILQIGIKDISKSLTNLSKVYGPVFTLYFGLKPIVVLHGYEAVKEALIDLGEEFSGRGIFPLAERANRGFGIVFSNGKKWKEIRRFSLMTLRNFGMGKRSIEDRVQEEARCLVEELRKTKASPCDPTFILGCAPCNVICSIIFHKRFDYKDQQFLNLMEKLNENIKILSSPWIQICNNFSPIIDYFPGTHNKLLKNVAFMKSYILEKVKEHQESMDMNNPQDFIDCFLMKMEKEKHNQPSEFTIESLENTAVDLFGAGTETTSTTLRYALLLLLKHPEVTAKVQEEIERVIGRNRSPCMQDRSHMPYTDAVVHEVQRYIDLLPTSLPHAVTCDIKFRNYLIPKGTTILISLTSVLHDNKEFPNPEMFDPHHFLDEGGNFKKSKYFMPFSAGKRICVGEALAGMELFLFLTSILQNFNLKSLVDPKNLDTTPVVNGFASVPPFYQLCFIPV

Compound | EC50 [5] | EC50 [6] | EC50 [7] | other results
CC(=O)c1cccc(S(=O)(=O)N2CCN(CCOc3ccccc3)CC2)c1 | – | – | – | IC50 [1]: > 66 µM (inactive); IC50 [2]: > 66 µM (inactive)
CCN(CC)CCNC(=O)c1ccc2c(=O)n(C3CCCC3)c(=S)[nH]c2c1 | – | – | – | EC50 [3]: 17.2 µM (active); EC50 [4]: 14.1 µM (active)
COc1ccc(S(=O)(=O)NCC2CCCN(Cc3ccc(OC)cc3F)C2)cc1 (stereo unspecified) | > 150 µM (not active) | > 150 µM (not active) | 114 µM (active) | –
COc1c(Cl)cnn(-c2ccc(C)cc2)c1=O | – | – | – | EC50 [3]: 15.5 µM (active); EC50 [4]: 11.5 µM (active)
Cn1cc([N+](=O)[O-])c(C(=O)Nc2ccc(Br)cn2)n1 | – | – | – | EC50 [3]: 5.55 µM (active); EC50 [4]: 4.91 µM (active)
Cc1cccc(-c2oc3ccccc3c2-c2ccc3c(c2)OCO3)c1 | 5.16 µM (active) | > 150 µM (not active) | 2.25 µM (active) | –
Cc1cccc2nc(CSCc3ccco3)cn12 | – | – | – | IC50 [1]: > 66 µM (inactive); IC50 [2]: > 66 µM (inactive)
CCCn1c(NC(=O)c2cccc(C)c2C)nc2ccccc21 | > 150 µM (not active) | > 150 µM (not active) | 7.43 µM (active) | –
CCc1noc(C)c1C(=O)OCC(=O)NC(=O)c1ccccc1 | > 150 µM (not active) | > 150 µM (not active) | > 150 µM (not active) | –
N#Cc1nc(-c2ccc(OCc3ccccc3Cl)cc2)oc1NCCCn1ccnc1 | 16.6 µM (active) | > 150 µM (not active) | 4.38 µM (active) | –
COc1ccc(Cn2c(-c3ccco3)nc3oc4ccccc4c(=O)c3c2=O)cc1 | > 150 µM (not active) | 86.5 µM (active) | 12.1 µM (active) | –
COc1ccc(C2=NOC(CNC(N)=S)C2)cc1 (stereo unspecified) | > 150 µM (not active) | – | – | –
CCCC(=O)NC(Nc1cc(C(F)(F)F)ccc1Cl)C(Cl)(Cl)Cl (stereo unspecified) | – | – | – | EC50 [3]: 25.5 µM (active); EC50 [4]: 33.6 µM (active)
COc1ccc(C(C)=O)cc1COc1cc(C)c(Cl)c(C)c1 | > 150 µM (not active) | > 150 µM (not active) | > 150 µM (not active) | –
Cc1ccc(S(=O)(=O)CNC(=S)c2ccc3ccccc3c2)cc1 | > 150 µM (not active) | – | – | –
COC(=O)c1cc(-c2ccc(OC)cc2F)nc2nc(SC)nc(O)c12 | > 150 µM (not active) | 23.3 µM (active) | 8.08 µM (active) | –
CCOC(=O)N1CCN(C(=O)CSCc2nc(-c3ccccc3F)oc2C)CC1 | – | – | – | IC50 [1]: > 66 µM (inactive); AC50 [8]: 25.1 µM (inconclusive); AC50 [9]: 12.6 µM (inconclusive); AC50 [10]: 14.1 µM (inconclusive); IC50 [2]: > 66 µM (inactive)
CC(=O)Nc1ccc(-c2csc(NC(=O)Cc3cccc(F)c3)n2)cc1 | – | – | – | AC50 [11]: 1.29 µM (active)
CCOc1ccc(CN2CCN(CC(O)Cn3c4ccccc4c4ccccc43)CC2)cc1 (stereo unspecified) | – | – | – | EC50 [3]: 9.94 µM (active); EC50 [4]: 9.01 µM (active)
COc1ccc2c(c1OC)C(=O)N1C2SC[C@H]1C(=O)NC1CCCC1 (stereo partly specified) | – | – | – | IC50 [1]: > 66 µM (inactive); IC50 [2]: > 66 µM (inactive)
COC(=O)c1ccc(/C=C/c2c(-c3ccc(OC)cc3)sc3ccccc23)cc1 | – | – | – | AC50 [11]: 3.79 µM (active)
O=C(NC(=S)Nc1cccnc1)c1cccc(Cl)c1 | – | – | – | IC50 [1]: > 66 µM (inactive); IC50 [2]: > 66 µM (inactive)
CC1=NC2=C(C(=O)CCC2)C(c2cc3c(cc2Br)OCO3)/C1=C(\O)OCCOC(C)C (stereo unspecified) | – | – | – | IC50 [1]: > 66 µM (inactive); IC50 [2]: > 66 µM (inactive)
O=C1c2ccccc2C2=Nc3ccccc3SC(c3ccccc3F)C12 (stereo unspecified) | 4.91 µM (active) | 12.7 µM (active) | 8.24 µM (active) | AC50 [8]: 0.355 µM (inconclusive)
O=C(NCCc1c[nH]c2ccccc12)C(=O)c1c[nH]c2ccccc12 | – | – | – | AC50 [11]: 1.48 µM (active)
CS(=O)(=O)c1ccc([C@@H](O)[C@@H](CO)NC(=O)C(Cl)Cl)cc1 [THIAMPHENICOL] | 4.02 µM (active) | 4.55 µM (active) | 1.89 µM (active) | –
